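All cell lines were grown in 96-well plates and treated with compound for 48 hours. The concentration for full growth arrest is given as TGI.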
Assays:
Assay in all cases: growth of human tumour cells (NCI), 48 h
U251 CNS = test system: U251 CNS
NCI-H522 lung = test system: NCI-H522 lung
OVCAR-3 ovarian = test system: OVCAR-3 ovarian
HCT-116 colon = test system: HCT-116 colon
HL-60(TB) leukemia = test system: HL-60(TB) leukemia
OVCAR-8 ovarian = test system: OVCAR-8 ovarian
HT29 colon = test system: HT29 colon
OVCAR-5 ovarian = test system: OVCAR-5 ovarian
A498 renal = test system: A498 renal
CAKI-1 renal = test system: CAKI-1 renal
RXF 393 renal = test system: RXF 393 renal
CCRF-CEM leukemia = test system: CCRF-CEM leukemia
ACHN renal = test system: ACHN renal
SN12C renal = test system: SN12C renal
786-0 renal = test system: 786-0 renal
SK-MEL-2 melanoma = test system: SK-MEL-2 melanoma
IGROV1 ovarian = test system: IGROV1 ovarian
KM12 colon = test system: KM12 colon
OVCAR-4 ovarian = test system: OVCAR-4 ovarian
EKVX NSCLC = test system: EKVX NSCLC
HCT-15 colon = test system: HCT-15 colon
LOX IMVI melanoma = test system: LOX IMVI melanoma
HS 578T breast = test system: HS 578T breast
SR leukemia = test system: SR leukemia
SNB-75 CNS = test system: SNB-75 CNS
NCI-H226 lung = test system: NCI-H226 lung
MDA-N = test system: MDA-N
UACC-62 melanoma = test system: UACC-62 melanoma
M14 melanoma = test system: M14 melanoma
DU-145 prostate = test system: DU-145 prostate
HOP-92 NSCLC = test system: HOP-92 NSCLC
SF-539 CNS = test system: SF-539 CNS
COLO 205 colon = test system: COLO 205 colon
RPMI-8226 leukemia = test system: RPMI-8226 leukemia
T-47D breast = test system: T-47D breast
UACC-257 melanoma = test system: UACC-257 melanoma
SNB-19 CNS = test system: SNB-19 CNS
A549 NSCLC = test system: A549 NSCLC
MOLT-4 leukemia = test system: MOLT-4 leukemia
NCI/ADR-RES ovarian = test system: NCI/ADR-RES ovarian
PC-3 prostate = test system: PC-3 prostate
UO-31 renal = test system: UO-31 renal
HCC-2998 colon = test system: HCC-2998 colon
SK-MEL-28 melanoma = test system: SK-MEL-28 melanoma
K-562 leukemia = test system: K-562 leukemia
SF-295 CNS = test system: SF-295 CNS
SW-620 colon = test system: SW-620 colon
HOP-62 NSCLC = test system: HOP-62 NSCLC
SF-268 CNS = test system: SF-268 CNS
NCI-H460 lung = test system: NCI-H460 lung
SK-MEL-5 melanoma = test system: SK-MEL-5 melanoma
MCF7 breast = test system: MCF7 breast
TK-10 renal = test system: TK-10 renal
MALME-3M melanoma = test system: MALME-3M melanoma
BT-549 breast = test system: BT-549 breast
MDA-MB-435 = test system: MDA-MB-435
NCI-H23 lung = test system: NCI-H23 lung
MDA-MB-231 breast = test system: MDA-MB-231 breast
SK-OV-3 ovarian = test system: SK-OV-3 ovarian

**Q.** Which results are given for `Cc1cc2c(cc1C)C(=O)/C(=C/c1ccccc1C(=O)O)C2`?
**A.** TGI (U251 CNS): 68.8 µM; TGI (NCI-H522 lung): > 100 µM; TGI (OVCAR-3 ovarian): > 100 µM; TGI (HCT-116 colon): > 100 µM; TGI (HL-60(TB) leukemia): > 100 µM; TGI (OVCAR-8 ovarian): > 100 µM; TGI (HT29 colon): > 100 µM; TGI (OVCAR-5 ovarian): 68.9 µM; TGI (A498 renal): 88.6 µM; TGI (CAKI-1 renal): > 100 µM; TGI (RXF 393 renal): > 100 µM; TGI (CCRF-CEM leukemia): > 100 µM; TGI (ACHN renal): > 100 µM; TGI (SN12C renal): > 100 µM; TGI (786-0 renal): > 100 µM; TGI (SK-MEL-2 melanoma): > 100 µM; TGI (IGROV1 ovarian): > 100 µM; TGI (KM12 colon): > 100 µM; TGI (OVCAR-4 ovarian): > 100 µM; TGI (EKVX NSCLC): > 100 µM; TGI (HCT-15 colon): > 100 µM; TGI (LOX IMVI melanoma): 83.5 µM; TGI (HS 578T breast): > 100 µM; TGI (SR leukemia): 62.7 µM; TGI (SNB-75 CNS): > 100 µM; TGI (NCI-H226 lung): 57.8 µM; TGI (MDA-N): > 100 µM; TGI (UACC-62 melanoma): > 100 µM; TGI (M14 melanoma): > 100 µM; TGI (DU-145 prostate): > 100 µM; TGI (HOP-92 NSCLC): > 100 µM; TGI (SF-539 CNS): 39.6 µM; TGI (COLO 205 colon): 36.3 µM; TGI (RPMI-8226 leukemia): 75.2 µM; TGI (T-47D breast): > 100 µM; TGI (UACC-257 melanoma): > 100 µM; TGI (SNB-19 CNS): > 100 µM; TGI (A549 NSCLC): > 100 µM; TGI (MOLT-4 leukemia): > 100 µM; TGI (NCI/ADR-RES ovarian): > 100 µM; TGI (PC-3 prostate): > 100 µM; TGI (UO-31 renal): > 100 µM; TGI (HCC-2998 colon): > 100 µM; TGI (SK-MEL-28 melanoma): > 100 µM; TGI (K-562 leukemia): > 100 µM; TGI (SF-295 CNS): > 100 µM; TGI (SW-620 colon): > 100 µM; TGI (HOP-62 NSCLC): > 100 µM; TGI (SF-268 CNS): > 100 µM; TGI (NCI-H460 lung): > 100 µM; TGI (SK-MEL-5 melanoma): > 100 µM; TGI (MCF7 breast): > 100 µM; TGI (TK-10 renal): > 100 µM; TGI (MALME-3M melanoma): > 100 µM; TGI (BT-549 breast): > 100 µM; TGI (MDA-MB-435): > 100 µM; TGI (NCI-H23 lung): 66.7 µM

**Q.** Which results are given for `COC(=O)c1ccc(/C=C2\Oc3cc(O)ccc3C2=O)cc1`?
**A.** TGI (U251 CNS): > 100 µM; TGI (NCI-H522 lung): > 100 µM; TGI (OVCAR-3 ovarian): > 100 µM; TGI (HCT-116 colon): > 100 µM; TGI (HL-60(TB) leukemia): > 100 µM; TGI (OVCAR-8 ovarian): > 100 µM; TGI (MDA-MB-231 breast): > 100 µM; TGI (CAKI-1 renal): > 100 µM; TGI (RXF 393 renal): 77.3 µM; TGI (CCRF-CEM leukemia): > 100 µM; TGI (ACHN renal): > 100 µM; TGI (SN12C renal): > 100 µM; TGI (786-0 renal): > 100 µM; TGI (IGROV1 ovarian): > 100 µM; TGI (KM12 colon): > 100 µM; TGI (SK-OV-3 ovarian): > 100 µM; TGI (OVCAR-4 ovarian): > 100 µM; TGI (EKVX NSCLC): > 100 µM; TGI (HCT-15 colon): > 100 µM; TGI (HS 578T breast): > 100 µM; TGI (SR leukemia): > 100 µM; TGI (SNB-75 CNS): > 100 µM; TGI (NCI-H226 lung): > 100 µM; TGI (MDA-N): > 100 µM; TGI (UACC-62 melanoma): > 100 µM; TGI (M14 melanoma): > 100 µM; TGI (DU-145 prostate): > 100 µM; TGI (SF-539 CNS): > 100 µM; TGI (COLO 205 colon): > 100 µM; TGI (RPMI-8226 leukemia): > 100 µM; TGI (T-47D breast): > 100 µM; TGI (UACC-257 melanoma): > 100 µM; TGI (SNB-19 CNS): > 100 µM; TGI (A549 NSCLC): > 100 µM; TGI (MOLT-4 leukemia): > 100 µM; TGI (NCI/ADR-RES ovarian): > 100 µM; TGI (PC-3 prostate): > 100 µM; TGI (UO-31 renal): > 100 µM; TGI (HCC-2998 colon): > 100 µM; TGI (SK-MEL-28 melanoma): > 100 µM; TGI (K-562 leukemia): > 100 µM; TGI (SF-295 CNS): > 100 µM; TGI (SW-620 colon): > 100 µM; TGI (HOP-62 NSCLC): > 100 µM; TGI (SF-268 CNS): > 100 µM; TGI (NCI-H460 lung): > 100 µM; TGI (SK-MEL-5 melanoma): > 100 µM; TGI (MCF7 breast): > 100 µM; TGI (TK-10 renal): > 100 µM; TGI (BT-549 breast): > 100 µM; TGI (MDA-MB-435): > 100 µM; TGI (NCI-H23 lung): > 100 µM

Reference: PubChem BioAssay (NCI)
